Experimental data as given in patent US9585823B2, “Personal care compositions comprising a multi-active system for down regulating cytokines irritation” (The Gillette Company, priority 2010, dated 2017).

System: hTERT keratinocytes
Format: cell-based
Procedure: To ensure proper levels of the biological active molecules for the in vitro study, dilution studies were conducted and ATP was analyzed for the highest non-cytotoxic concentration. Olivem 460 (lot LG0833 from B&T, Milan Italy) at a level of 0.000156% and SymRelief (from Symrise) at a level of 0.0625% were determined to be appropriate respective concentrations for this study. ATP analysis is described below.
ATP analysis was conducted using Cell Titer-Glo. The CellTiter-Glo Luminescent Cell Viability Assay was obtained from Promega Corporation (Madison, Wis.). This assay is a homogeneous method for determining the number of viable cells in culture based on quantitation of ATP present, signaling the presence of metabolically active cells. After the final treatment and supernatants collected, the CellTiter-Glo reagent was added. The reagent was then transferred to a BD Falcon (Franklin Lakes, N.J.) Microtest 96-well Assay Plate (black, flat bottom, reference 353945, lot 041151). Luminescence was read on a Perkin Elmer Fluorimeter (Wallac Envision 2101 Multilabel Reader). Relative luminescence units were plotted in percent control versus treatment concentration.

| Substance | highest non-cytotoxic concentration (level determined appropriate for the study) [%] |
| --- | --- |
| Bisabolol (and) Zingiber Officinale Root Extract [SymRelief] | 0.0625 |
| Sodium PEG-7 Olive Oil Carboxylate [Olivem 460] | 0.000156 |
